# In US10646596B2, “Near-infrared dye-bound transferrin, and contrast agent for photoacoustic imaging, including the near-infrared dye-bound transferrin” (CANON KABUSHIKI KAISHA, priority 2015, dated 2020):
# Assays:
# [1] = test system: colon 26 mouse colon cancer cells (subcutaneous tumor); test: Evaluation of tumor-imaging contrast by fluorescence imaging in cancer-bearing mouse; assay type: in vivo; settings: for fluorescent signal from the tumor site in fluorescence image: 24 hours after administration, FIGURE; for Imaging contrast (fluorescence intensity of tumor site / normal site): 24 hours after tail vein administration, 10 nmol dye per mouse (Alexa Fluor 680-TF (2.0): 31 nmol)
# Description: In the fluorescence imaging experiment, a female outbred BALB/c Slc-nu/nu mouse (6-week-old at the time of purchase) (Japan SLC, Inc.) was used. For one week before the mouse was allowed to bear a cancer, normal diet and bed were used to habituate the mouse to an environment where the diet and drinking water were available ad libitum. Before about one week of the imaging experiment, 1×10^6 colon 26 mouse colon cancer cells (RIKEN) were subcutaneously injected into the femur area of the mouse to thereby prepare a cancer-bearing model mouse.
# In order to evaluate the tumor-imaging contrast, the fluorescence intensity of a tumor site (measured area: 0.5×0.5 cm) and the fluorescence intensity (selected as a normal site, measured area: 0.5×0.5 cm) of the base of a leg were quantified from the fluorescence imaging data illustrated in FIGURE. The ratio of the intensities, namely, the value obtained by dividing the value of the fluorescence intensity of a tumor site by the value of the fluorescence intensity of a normal site, was expressed by a numeral value as an imaging contrast. […] A larger imaging contrast of the compound of the present invention than the imaging contrast of Alexa Fluor 680-TF (2.0) is considered to be due to the difference in tumor accumulation property, as described later. The number of the dye(s) labeled at which the highest imaging contrast was achieved was 4.8. On the other hand, when the number of the dye(s) labeled exceeded 8, a tendency of the imaging contrast to be reduced was observed.
# [2] = Residual rate in blood (amount of dye in blood) in cancer-bearing mouse; assay type: in vivo; settings: 24 hours after administration, tail vein blood
# Method: (§1) The amount of the dye in a tumor and the amount of the dye in blood with respect to each mouse in the tumor-imaging experiment performed in Example 4 were quantitatively determined to thereby evaluate the tumor accumulation property and the residual rate in blood of each compound.
# The residual rate in blood was expressed as the rate of dye transfer (% ID/g) to blood relative to the amount of the dye to be administered per gram of blood (1 mL when the specific gravity was assumed to be 1). A blood sample was taken from the tail vein of the mouse after 24 hours of administration, and the blood sample, 1% Triton (registered trademark) X-100 and DMSO were mixed in the plastic tube in a ratio of 2:9:9. The fluorescence intensity of the blood solution treated as described above was measured in the plastic tube using IVIS (registered trademark) Imaging System 200 Series (manufactured by XENOGEN) to thereby measure the amount of the dye in blood.
# [3] = test system: colon 26 mouse colon cancer cells (subcutaneous tumor); test: Tumor accumulation property (amount of dye in tumor) in cancer-bearing mouse; assay type: in vivo; settings: 24 hours after administration; for Tumor/blood ratio: tumor accumulation / residual rate in blood
# Description: as §1
# (§2) The tumor accumulation property was expressed as the rate of dye transfer (% ID/g) to a tumor relative to the amount of the dye to be administered per gram of the tumor. First, the mouse was euthanized by a carbon dioxide gas after 24 hours of administration, and thereafter the tumor was surgically resected. The tumor was transferred to a plastic tube, an aqueous 1% Triton-X100 solution was added at 1.25 times the weight of the tumor, and the tumor was crushed using a plastic pestle. Next, DMSO was added at 20.25 times the weight of the tumor tissue. The fluorescence intensity of the solution of the tumor crushed, treated as described above, was measured in the plastic tube using IVIS (registered trademark) Imaging System 200 Series (XENOGEN) to thereby measure the amount of the dye in the tumor.
# (§3) The tumor/blood ratio was calculated by the above measurements. The ratio corresponds to the ratio of the tumor accumulation property to the residual rate in blood, and a higher ratio means a higher tumor-imaging ability.
# [4] = in vivo; cited from earlier work
# [5] = Tumor accumulation property (amount of dye in tumor) in cancer-bearing mouse; assay type: in vivo; settings: mouse, 24 hours after administration
# Description: as §1, §2, §3
Compound,fluorescent signal from the tumor site in fluorescence image [1],Imaging contrast (fluorescence intensity of tumor site / normal site) [1],Residual rate in blood [2],Tumor/blood ratio [3],"tissue uptake at 24 h ([2]; mouse, whole blood)",half-life in blood [4],"tissue uptake at 24 h ([5]; tumor, read-out: Rate of tumor accumulation)","Kp at 24 h ([5]; tumor accumulation / residual rate in blood, read-out: Tumor/blood ratio)",Rate of tumor accumulation [3]
iTF (4.8): Human transferrin covalently bound to ICG-Sulfo-OSu near-infrared dye; number of dye(s) labeled 4.8,the fluorescent signal from the tumor site was observed,4.1,2.1 % ID/g,3.3,–,–,–,–,–
iTF (8.3): Human transferrin covalently bound to ICG-Sulfo-OSu near-infrared dye; number of dye(s) labeled 8.3,the fluorescent signal from the tumor site was observed,3.3,0.7 % ID/g,2.9,–,–,–,–,–
iTF (2.0): Human transferrin covalently bound to ICG-Sulfo-OSu near-infrared dye; number of dye(s) labeled 2.0,the fluorescent signal from the tumor site was observed,3.3,2.8 % ID/g,0.7,–,–,–,–,–
"CC1(C)C(/C=C/C=C/C=C/C=C2/N(CCCCS(=O)(=O)[O-])c3ccc4ccccc4c3C2(C)C)=[N+](CCCCS(=O)(=O)[O-])c2ccc3ccccc3c21.[Na+] [ICG, indocyanine green, reference compound]",no fluorescent signal was observed,1.2,–,–,0.1 %ID/g,about several minutes,0 %ID/g,0.1,zero
iTF (8.4): Human transferrin covalently bound to ICG-Sulfo-OSu near-infrared dye; number of dye(s) labeled 8.4,the fluorescent signal from the tumor site was observed,2.3,0.4 % ID/g,1.9,–,–,–,–,0.8 % ID/g
"Alexa Fluor 680-TF (2.0): Transferrin From Human Serum, Alexa Fluor 680 Conjugate, Life Technologies, Product No. T35357, number of dye(s) labeled 2.0 [reference compound]",–,1.2,2.8 % ID/g,0.2,–,–,–,–,0.6 % ID/g
iTF (7.0): Human transferrin covalently bound to ICG-Sulfo-OSu near-infrared dye; number of dye(s) labeled 7.0,the fluorescent signal from the tumor site was observed,3.4,1.8 % ID/g,–,–,–,–,–,–
